{"source": "patent US20250041299A1", "about": "“THERAPEUTIC TARGETING OF GASTROINTESTINAL STROMAL TUMOR (GIST) BY DISRUPTING THE MENIN-MLL EPIGENETIC COMPLEX” (DANA-FARBER CANCER INSTITUTE, INC., priority 2021, published 2025)", "key": {"GIST-T1 cells [1]": {"system": "GIST-T1 cells", "assay": "RNA-seq and GSEA of drug-treated GIST-T1 cells", "assay_type": "cell-based, human", "protocol": "(§1) RNA-seq. Total RNA was isolated using a RNeasy Plus Kit (Qiagen Cat #74136), and concentration measured by Nanodrop (Thermo Fisher Scientific) and quality by TapeStation 4200 (Agilent). Library preparation was performed using the NEBNext Ultra II DNA Library Prep Kit (New England Biolabs Cat #E7645S). Paired-end 150 bp sequencing was performed on a NovaSeq 6000 (Illumina). RNA-seq data were aligned to hg19 using STAR (Dobin et al., Bioinformatics 29:15-21 (2012)) with expression quantification using Cufflinks (Trapnell et al., Nat. Biotechnol. 28:511-5 (2010)) to generate gene expression values in fragments per kilobase of transcript per million mapped reads (FPKM) units. Gene set enrichment analysis (GSEA, RRID: SCR_003199) (Subramanian et al., Proc. Natl. Acad. Sci. USA 102:15545-50 (2005)) was performed using Hallmark gene lists in the Molecular Signatures Database."}, "GIST-T1 cells [2]": {"system": "GIST-T1 cells", "assay": "Growth over time assay in GIST-T1", "assay_type": "cell-based, human", "settings": "all doses tested; day 21 cell count", "description": "Cell Culture and Virus Production. All cell lines tested negative for mycoplasma infection on routine surveillance (MilliporeSigma Cat #MP0025-1KT). Human embryonic kidney (HEK) 293 FT (Thermo Fisher Scientific Cat #R70007, RRID: CVCL_6911) and the GIST cell lines GIST-T1 (Cosmo Bio Cat #PMC-GIST01-COS, RRID: CVCL_4976; KIT mutation in exon 11 Δ560-578), GIST430 (RRID: CVCL_7040; KIT mutation in exon 11 Δ560-576), GIST48B (RRID: CVCL_M441: KIT-independent), and GIST882 (RRID: CVCL_7044: KIT mutation in exon 13 K642E) were cultured in Dulbecco's modified Eagle's medium containing 10% FBS, 2 mM L-glutamine, […], and […]. KIT rescue cell lines, which are independent of the KIT enhancer, were generated as previously described (Hemming et al., Cancer Research 79:994-1009 (2019)). Non-commercial cell lines were obtained from the laboratory of Jonathan Fletcher between 2014 and 2016. KIT exons were sequenced to confirm the expected coding mutations and cell identity of GIST cell lines, and cells were thawed from original or derived stocks and used in the described experiments within approximately 3 months. Transfections were performed with X-tremeGene (Roche, Cat #6365809001). Lentiviral production was performed as previously described (Hemming et al., PLOS Biol. 6: e2571-15 (2008)). […]"}, "[3]": {"system": "GIST-T1 cell line xenografts", "assay": "GIST-T1 cell line xenograft, tumor volume", "assay_type": "in vivo, mice", "settings": "for tumor volume relative to baseline: WM-1119 50 mg/kg gavage 3 times daily, one value per animal 1-6", "description": "Xenograft Models. The PG27 patient derived xenograft was obtained from a patient undergoing clinically indicated surgery and following written informed consent to a Dana-Farber Cancer Institute IRB-approved research protocol. Cryopreserved tumor or the GIST-T1 cell line mixed 1:1 with matrigel were implanted subcutaneously into 6-week-old female nude mice (NU/NU; Charles River Laboratories). GIST-T1 tested negative for mycoplasma and rodent pathogens (Charles River Laboratories). For in vivo assessment of CRISPR/Cas9)-modified cell line growth. GIST-T1/Cas9 cells were treated with the indicated sgRNAs and selected with puromycin in vitro for 14 days prior to bilateral flank implantation. For drug treatment studies, singly engrafted mice were enrolled into treatment groups when tumors reached approximately 100-200 mm^3 in size, as measured by calipers and determined by the tumor volume equation: […]. […] WM-1119 (50 mg/kg gavage 3 times daily. 7 days per week). VTP-50469 (0.1% in chow) or combination treatments. […] Tumors were dissected and fixed in 10% formalin for corollary studies including H&E staining and immunohistochemistry of sectioned tumors. 4 μm sections were cut from fixed and embedded tumors and stained with Ki-67 (1:400, Cell Signaling Technology Cat #9027) and cleaved caspase-3 (1:250, Cell Signaling Technology Cat #9579). Reactions were developed using DAB (Cell Signaling Technology Cat #8059) or NovaRed (Vector Laboratories Cat #SK-4800) substrate kits per manufacturer recommendations. All procedures were conducted under protocols approved by the Institutional Animal Care and Use Committee at Dana-Farber Cancer Institute."}, "GIST cells [4]": {"system": "GIST cells", "assay": "Cell cycle analysis (propidium iodide, flow cytometry)", "assay_type": "cell-based, human", "settings": "72 hours imatinib", "protocol": "(§2) Cell cycle and apoptosis. […] Cells were trypsinized, washed in PBS and fixed in 70% ethanol. Propidium iodide at 25 μg/mL (Life Technologies Cat #P1304MP) and RNAse A at 0.2 mg/mL (Thermo Fischer Scientific Cat #EN0531) were used to stain nuclear DNA. Analysis was performed on a Guava easyCyte Flow Cytometer (Luminex Corporation), and single cells were assessed for nuclear content using Guava InCyte software. Apoptosis and cell death were measured following 72 h of drug treatment using Guava Nexin Reagent (Luminex Corporation Cat #4500-0450) per manufacturer's recommendations. Non-apoptotic cells stain negative for Annexin V and 7-AAD, early apoptotic cells stain positive for Annexin V but negative for 7-AAD and late apoptotic and dead cells stain positive for both Annexin V and 7-AAD. Staining was assayed on a Guava easyCyte Flow Cytometer and data analyzed using Guava InCyte software."}, "GIST-T1 xenografts": {"system": "GIST-T1 xenografts", "assay": "RNA-seq on GIST-T1 xenografts", "assay_type": "in vivo, mice", "settings": "5 and 10 days of treatment", "protocol": "as §1, with “Database. Xenograft Models. […] VTP-50469 (0.1% in chow) or combination treatments.” for “Database.”"}, "GIST cells [5]": {"system": "GIST cells", "assay": "Apoptosis and cell death (Annexin V / 7-AAD, Guava Nexin)", "assay_type": "cell-based, human", "settings": "72-hour treatment, imatinib 0.5 μM", "protocol": "as §2, with “Apoptosis and cell death were measured following 72 h of drug treatment using Guava Nexin Reagent (Luminex Corporation Cat #4500-0450) per manufacturer's recommendations.” left out"}}, "note": "“And” between values parts separate entries of the source, which are not always exact repeats. Equal values may be shown once.", "data": [{"smiles": "CC(C)N(C[C@H]1O[C@@H](n2cnc3c(N)ncnc32)[C@H](O)[C@@H]1O)[C@H]1C[C@@H](CCc2nc3cc(C(C)(C)C)ccc3[nH]2)C1", "note": "[EPZ-5676]", "values": [{"measurement": "HAND1-regulated transcriptional programs (GSEA)", "setting": "GIST-T1 cells [1]; GIST-T1, 5 days", "result": "significant disruption"}, {"measurement": "correlation of transcriptional changes with those of VTP-50469", "setting": "GIST-T1 cells [1]; GIST-T1, 5 days, RNA-seq", "result": "highly correlated"}, {"measurement": "cellular proliferation of GIST-T1 compared to DMSO control or GIST48B", "setting": "GIST-T1 cells [2]", "result": "significantly reduced cellular proliferation"}]}, {"smiles": "O=C(NNS(=O)(=O)c1ccccc1F)c1cc(F)cc(-c2ccccn2)c1", "note": "[WM-1119, 2-fluoro-N′-(3-fluoro-5-(pyridin-2-yl)benzoyl)benzenesulfonohydrazide]", "values": [{"measurement": "tumor volume relative to baseline", "setting": "[3]; treatment day 1 (baseline)", "result": 100}, {"measurement": "tumor volume relative to baseline", "setting": "[3]; treatment day 5, 50 mg/kg", "result": "175 and 211 and 114 and 133 and 87 and 152"}, {"measurement": "tumor volume relative to baseline", "setting": "[3]; treatment day 8, 50 mg/kg", "result": "480 and 322 and 157 and 173 and 131 and 206"}, {"measurement": "tumor volume relative to baseline", "setting": "[3]; treatment day 12, 50 mg/kg", "result": "518 and 368 and 287 and 160 and 145 and 260"}, {"measurement": "tumor volume relative to baseline", "setting": "[3]; treatment day 14, 50 mg/kg", "result": "527 and 429 and 327 and 181 and 163 and 328"}, {"measurement": "tumor volume relative to baseline", "setting": "[3]; treatment day 19, 50 mg/kg", "result": "876 and 501 and 511 and 180 and 268 and 277"}, {"measurement": "tumor volume relative to baseline", "setting": "[3]; treatment day 22, 50 mg/kg", "result": "878 and 409 and 489 and 150 and 205 and 361"}, {"measurement": "tumor volume relative to baseline", "setting": "[3]; treatment day 27, 50 mg/kg", "result": "856 and 525 and 558 and 202 and 232 and 317"}, {"measurement": "tumor volume relative to baseline", "setting": "[3]; treatment day 29, 50 mg/kg", "result": "874 and 532 and 648 and 199 and 221 and 353"}, {"measurement": "tumor growth compared to vehicle", "setting": "[3]; end of 28-day treatment period", "result": "significant reductions in tumor growth"}, {"measurement": "expression of GIST TFs", "setting": "GIST-T1 cells [1]; GIST-T1, 5 days", "result": "greatest global reduction in TF expression"}, {"measurement": "global gene expression change (RNA-seq) versus DMSO", "setting": "GIST-T1 cells [1]; GIST-T1 treated 1 and 5 days", "result": "modestly altered expression of numerous genes"}]}, {"smiles": "Cc1ccc(NC(=O)c2ccc(CN3CCN(C)CC3)cc2)cc1Nc1nccc(-c2cccnc2)n1", "note": "[imatinib]", "values": [{"measurement": "cell cycle effect", "setting": "GIST cells [4]", "result": "G0/G1 cell cycle arrest"}, {"measurement": "KIT signaling-dependent transcripts TMEM100 and SPRY2 in xenografts", "setting": "GIST-T1 xenografts", "result": "preferentially reduced"}, {"measurement": "expression of genes regulated by HAND1 in xenografts", "setting": "GIST-T1 xenografts", "result": "decrease in the expression of genes regulated by HAND1"}, {"measurement": "apoptosis and cell death versus DMSO", "setting": "GIST cells [5]", "result": "significant increase in early and late-phase apoptosis and cell death"}]}]}
